Measured values taken from patent publication US9487529B2, “Macrocyclic compounds as ALK, FAK and JAK2 inhibitors” (Cephalon, Inc., priority 2011, dated 2016).
Read-outs that look alike come from different tables or passages of the source.

Legend:
recombinant human FAK = target: T1, recombinant human FAK (Homo sapiens, UniProt Q05397); test: FAK Enzyme Assay (TRF detection); format: biochemical; conditions: 10 μM ATP
T1 construct: purchased Invitrogen PV3832; host or cells: baculovirus expression system
Protocol: Example compounds were tested for their ability to inhibit the kinase activity of baculovirus-expressed recombinant human FAK using the TRF detection system as described above for JAK2. IC50 runs were performed in 96-well Costar high binding plates (#3922). The plates were coated first with 100 μL/well of 10 μg/mL neutravidin in TBS at 37° C. for 2 h, followed by 100 μL/well of 1 μg/mL 15-mer peptide substrate (biotinyl-amino-hexanoyl-EQEDEPEGDYFEWLE-amide) at 37° C. for another hour. The FAK assay mixture (total volume=100 μL/well) consisting of 20 mM HEPES, pH 7.2, 10 μM ATP, 5 mM MgCl2, 0.5 mM DTT, 0.1% BSA, and test compound (diluted in DMSO; 2.5% DMSO final in assay) was then added to the assay plate. Enzyme (10 ng/mL FAK, Invitrogen #PV3832) was added and the reaction was allowed to proceed at room temperature for 30 minutes. Detection of the phosphorylated product was performed by adding 100 μL/well of Eu—N1 labeled PY100 antibody (diluted 1:75000 in antibody dilution buffer). Samples were incubated at room temperature for 1 hour, followed by addition of 100 μL enhancement solution. Plates were agitated for 10 minutes and fluorescence of the resulting solution measured using the PerkinElmer EnVision™ 2102 (or 2104) multi-label plate reader.
(§1) Data analysis was performed using ActivityBase (IDBS, Guilford, UK). IC50 values were calculated by plotting percent inhibition versus log10 of the concentration of compound and fitting to the nonlinear regression sigmoidal dose-response (variable slope) equation in XLFit (IDBS, Guilford, UK).

[1] = target: T2, baculovirus-expressed ALK (Homo sapiens, UniProt Q9UM73); test: ALK Kinase Assay (ELISA/TRF); format: biochemical; conditions: 1 μM ATP (Km level); average of two or more determinations; class symbols
T2 construct: host or cells: baculovirus expression system
Protocol: Briefly, each 96-well plate was coated with 100 μL/well of 10 μg/mL substrate (GST-PLC-γ) in Tris-buffered saline (TBS). […] The reaction was initiated by adding enzyme (30 ng/mL ALK) and was allowed to proceed at 37° C. for 15 minutes. Detection of the phosphorylated product was performed by adding 100 μL/well of Eu—N1 labeled PT66 antibody (Perkin Elmer #AD0041). […] Data analysis was performed using ActivityBase (IDBS, Guilford, UK). IC50 values were calculated by plotting percent inhibition versus log10 of the concentration of compound and fitting to the nonlinear regression sigmoidal dose-response (variable slope) equation in XLFit (IDBS, Guilford, UK).

[2] = target: T3, baculovirus-expressed JAK2 (Homo sapiens, UniProt O60674); test: JAK2 Kinase Assay (TRF detection); format: biochemical; conditions: 0.2 μM ATP; average of two or more determinations; class symbols
T3 construct: host or cells: baculovirus expression system
Protocol: Compounds were tested for their ability to inhibit the kinase activity of baculovirus-expressed JAK2 using the TRF detection system. IC50 runs were conducted in 96-well Costar high binding plates (Corning Costar #3922, Corning, N.Y.). The plates were coated first with 100 μL/well of 10 μg/mL Neutravidin (Pierce #31000, Rockford, Ill.) in TBS at 37° C. for 2 hours, followed by 100 μL/well of 1 μg/mL 15-mer peptide substrate (biotinyl-amino-hexanoyl-EQEDEPEGDYFEWLE-amide, Infinity Biotech Research and Resource, Aston, Pa.) at 37° C. for another hour. The JAK2 assay mixture (total volume=100 μL/well) consisting of 20 mM HEPES, pH 7.2, 0.2 μM ATP, 1 mM MnCl2, 0.1% BSA, and test compound (diluted in DMSO; 2.5% DMSO final in assay) was then added to the assay plate. Enzyme (15 ng/ml JAK2) was added and the reaction was allowed to proceed at room temperature for 20 minutes. Detection of the phosphorylated product was performed by adding 100 μL/well of Eu—N1 labeled PY100 antibody (PerkinElmer Life Sciences #AD0041, Boston, Mass.). Incubation at the room temperature then proceeded for 1 hour, followed by addition of 100 μl enhancement solution (PerkinElmer Life Sciences #1244-105, Boston, Mass.). The plate was gently agitated and after thirty minutes, the fluorescence of the resulting solution was measured using the PerkinElmer EnVision™ 2102 (or 2104) multi-label plate reader.
as §1

[3] = target: T4, human insulin receptor cytoplasmic domain (βIRCD) (Homo sapiens, UniProt P06213); test: Insulin Receptor Kinase Assay (TRF); format: biochemical; conditions: 20 μM ATP, read-out: IR IC50
T4 construct: human insulin receptor cytoplasmic domain (βIRCD); host or cells: baculovirus expression system
Protocol: Example compounds were tested for their ability to inhibit the kinase activity of baculovirus-expressed human insulin receptor cytoplasmic domain (βIRCD) using the TRF assay as described above for ALK. Phosphorylation of the substrate, recombinant GST-PLC-γ, was detected with a europium-labeled anti-phosphotyrosine antibody and measured by TRF. Each 96-well plate (Greiner#655074) was coated with 100 μL/well of 20 μg/mL substrate solution in TBS. The IR assay mixture (total volume=100 μL/well) consisting of 20 mM HEPES (pH 7.2), 20 μM ATP, 5 mM MnCl2, 0.1% BSA, and test compound (diluted in DMSO; 2.5% DMSO final in assay) was added to the assay plates. Enzyme (20 ng/mL βIRCD) was added and the reaction was allowed to proceed at room temperature for 20 minutes. Detection of the phosphorylated product was performed by adding 100 μL/well of Eu—N1 labeled PY100 antibody (PerkinElmer#AD0160; diluted 1:10,000 in TBS-T containing 0.25% BSA). Incubation at 37° C. for 1 hour was followed by addition of 50 μL enhancement solution (Wallace#1244-105). Plates were agitated for 10 minutes and the fluorescence was measured using the PerkinElmer EnVision™ 2102 or 2104 multi-label plate reader.
as §1

[4] = from C=Cc1ccc(N(C)S(C)(=O)=O)c(Nc2nc(Nc3cc(Br)c(N4CCN(C)CC4)cc3OC)ncc2Cl)c1; cc_pd bond; Pd(OAc)2 / tri-o-tolylphosphine, Et3N; CH3CN; 46.7 mM; 120.0 °C; 0.25 h
[5] = average of two or more determinations, class symbols

T4 sequence (P06213 980-1382 limits assumed): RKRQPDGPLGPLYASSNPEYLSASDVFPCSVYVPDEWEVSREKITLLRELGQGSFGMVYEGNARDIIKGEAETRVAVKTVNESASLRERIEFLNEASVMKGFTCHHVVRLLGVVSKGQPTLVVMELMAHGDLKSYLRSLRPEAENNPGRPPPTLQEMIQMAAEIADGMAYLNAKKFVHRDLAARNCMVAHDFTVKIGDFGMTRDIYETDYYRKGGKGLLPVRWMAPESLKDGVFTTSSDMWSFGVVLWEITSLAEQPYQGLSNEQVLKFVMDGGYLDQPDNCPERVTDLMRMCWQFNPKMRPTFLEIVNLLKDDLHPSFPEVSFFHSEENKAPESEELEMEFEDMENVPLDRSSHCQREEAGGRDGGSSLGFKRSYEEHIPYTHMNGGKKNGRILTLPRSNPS
T3 sequence (O60674 whole entry): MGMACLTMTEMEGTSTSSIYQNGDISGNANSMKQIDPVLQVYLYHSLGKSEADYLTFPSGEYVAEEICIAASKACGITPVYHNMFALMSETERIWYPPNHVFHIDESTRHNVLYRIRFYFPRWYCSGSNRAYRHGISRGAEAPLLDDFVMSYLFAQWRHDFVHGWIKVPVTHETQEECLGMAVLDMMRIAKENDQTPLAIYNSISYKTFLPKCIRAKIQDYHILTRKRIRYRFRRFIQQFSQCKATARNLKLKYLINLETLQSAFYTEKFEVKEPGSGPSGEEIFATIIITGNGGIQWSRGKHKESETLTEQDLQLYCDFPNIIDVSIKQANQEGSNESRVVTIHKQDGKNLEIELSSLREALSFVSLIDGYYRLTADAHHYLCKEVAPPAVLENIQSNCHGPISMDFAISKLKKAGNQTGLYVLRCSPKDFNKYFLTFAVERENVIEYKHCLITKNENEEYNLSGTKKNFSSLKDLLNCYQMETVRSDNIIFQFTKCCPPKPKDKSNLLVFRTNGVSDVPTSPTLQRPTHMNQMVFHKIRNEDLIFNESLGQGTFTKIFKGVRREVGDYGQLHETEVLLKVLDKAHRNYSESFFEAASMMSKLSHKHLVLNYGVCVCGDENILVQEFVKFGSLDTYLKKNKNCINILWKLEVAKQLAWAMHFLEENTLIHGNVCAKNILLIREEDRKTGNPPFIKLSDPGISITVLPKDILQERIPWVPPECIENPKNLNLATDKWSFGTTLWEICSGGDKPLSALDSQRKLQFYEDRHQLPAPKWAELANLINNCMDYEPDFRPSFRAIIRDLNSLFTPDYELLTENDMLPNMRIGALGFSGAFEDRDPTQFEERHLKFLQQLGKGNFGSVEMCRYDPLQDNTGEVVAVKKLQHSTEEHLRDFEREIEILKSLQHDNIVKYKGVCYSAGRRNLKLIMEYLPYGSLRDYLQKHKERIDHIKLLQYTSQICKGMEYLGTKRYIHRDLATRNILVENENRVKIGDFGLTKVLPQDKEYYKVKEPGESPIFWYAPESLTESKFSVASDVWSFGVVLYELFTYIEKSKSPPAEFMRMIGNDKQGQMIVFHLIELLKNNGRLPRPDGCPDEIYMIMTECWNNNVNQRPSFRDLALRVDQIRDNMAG
T1 sequence (Q05397 whole entry): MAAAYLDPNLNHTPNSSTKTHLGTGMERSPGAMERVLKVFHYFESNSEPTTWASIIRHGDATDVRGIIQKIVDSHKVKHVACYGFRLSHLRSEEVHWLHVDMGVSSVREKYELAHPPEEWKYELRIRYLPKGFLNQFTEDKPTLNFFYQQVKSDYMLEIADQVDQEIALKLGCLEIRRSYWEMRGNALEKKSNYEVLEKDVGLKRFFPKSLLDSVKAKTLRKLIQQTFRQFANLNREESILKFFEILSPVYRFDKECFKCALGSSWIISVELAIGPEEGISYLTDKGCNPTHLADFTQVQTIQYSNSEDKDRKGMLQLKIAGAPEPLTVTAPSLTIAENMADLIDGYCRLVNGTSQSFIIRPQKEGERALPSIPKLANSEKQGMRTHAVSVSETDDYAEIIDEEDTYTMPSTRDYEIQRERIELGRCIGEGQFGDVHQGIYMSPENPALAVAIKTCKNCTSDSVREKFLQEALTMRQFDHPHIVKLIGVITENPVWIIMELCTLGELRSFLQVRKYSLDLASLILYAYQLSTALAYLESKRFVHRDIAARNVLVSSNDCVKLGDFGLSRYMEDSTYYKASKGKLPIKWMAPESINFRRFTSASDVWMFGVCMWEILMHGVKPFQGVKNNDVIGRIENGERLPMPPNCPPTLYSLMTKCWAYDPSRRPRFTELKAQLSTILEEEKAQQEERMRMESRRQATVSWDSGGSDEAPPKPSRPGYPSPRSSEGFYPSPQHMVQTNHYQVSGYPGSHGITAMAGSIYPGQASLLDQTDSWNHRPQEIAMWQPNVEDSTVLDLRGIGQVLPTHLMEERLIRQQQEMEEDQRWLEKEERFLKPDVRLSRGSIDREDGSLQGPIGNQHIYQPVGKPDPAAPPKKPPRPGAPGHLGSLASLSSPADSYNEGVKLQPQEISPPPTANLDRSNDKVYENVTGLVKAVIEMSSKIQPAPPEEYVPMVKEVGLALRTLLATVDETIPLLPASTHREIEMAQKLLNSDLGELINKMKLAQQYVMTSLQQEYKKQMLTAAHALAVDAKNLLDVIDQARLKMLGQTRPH
T2 sequence (Q9UM73 19-1620): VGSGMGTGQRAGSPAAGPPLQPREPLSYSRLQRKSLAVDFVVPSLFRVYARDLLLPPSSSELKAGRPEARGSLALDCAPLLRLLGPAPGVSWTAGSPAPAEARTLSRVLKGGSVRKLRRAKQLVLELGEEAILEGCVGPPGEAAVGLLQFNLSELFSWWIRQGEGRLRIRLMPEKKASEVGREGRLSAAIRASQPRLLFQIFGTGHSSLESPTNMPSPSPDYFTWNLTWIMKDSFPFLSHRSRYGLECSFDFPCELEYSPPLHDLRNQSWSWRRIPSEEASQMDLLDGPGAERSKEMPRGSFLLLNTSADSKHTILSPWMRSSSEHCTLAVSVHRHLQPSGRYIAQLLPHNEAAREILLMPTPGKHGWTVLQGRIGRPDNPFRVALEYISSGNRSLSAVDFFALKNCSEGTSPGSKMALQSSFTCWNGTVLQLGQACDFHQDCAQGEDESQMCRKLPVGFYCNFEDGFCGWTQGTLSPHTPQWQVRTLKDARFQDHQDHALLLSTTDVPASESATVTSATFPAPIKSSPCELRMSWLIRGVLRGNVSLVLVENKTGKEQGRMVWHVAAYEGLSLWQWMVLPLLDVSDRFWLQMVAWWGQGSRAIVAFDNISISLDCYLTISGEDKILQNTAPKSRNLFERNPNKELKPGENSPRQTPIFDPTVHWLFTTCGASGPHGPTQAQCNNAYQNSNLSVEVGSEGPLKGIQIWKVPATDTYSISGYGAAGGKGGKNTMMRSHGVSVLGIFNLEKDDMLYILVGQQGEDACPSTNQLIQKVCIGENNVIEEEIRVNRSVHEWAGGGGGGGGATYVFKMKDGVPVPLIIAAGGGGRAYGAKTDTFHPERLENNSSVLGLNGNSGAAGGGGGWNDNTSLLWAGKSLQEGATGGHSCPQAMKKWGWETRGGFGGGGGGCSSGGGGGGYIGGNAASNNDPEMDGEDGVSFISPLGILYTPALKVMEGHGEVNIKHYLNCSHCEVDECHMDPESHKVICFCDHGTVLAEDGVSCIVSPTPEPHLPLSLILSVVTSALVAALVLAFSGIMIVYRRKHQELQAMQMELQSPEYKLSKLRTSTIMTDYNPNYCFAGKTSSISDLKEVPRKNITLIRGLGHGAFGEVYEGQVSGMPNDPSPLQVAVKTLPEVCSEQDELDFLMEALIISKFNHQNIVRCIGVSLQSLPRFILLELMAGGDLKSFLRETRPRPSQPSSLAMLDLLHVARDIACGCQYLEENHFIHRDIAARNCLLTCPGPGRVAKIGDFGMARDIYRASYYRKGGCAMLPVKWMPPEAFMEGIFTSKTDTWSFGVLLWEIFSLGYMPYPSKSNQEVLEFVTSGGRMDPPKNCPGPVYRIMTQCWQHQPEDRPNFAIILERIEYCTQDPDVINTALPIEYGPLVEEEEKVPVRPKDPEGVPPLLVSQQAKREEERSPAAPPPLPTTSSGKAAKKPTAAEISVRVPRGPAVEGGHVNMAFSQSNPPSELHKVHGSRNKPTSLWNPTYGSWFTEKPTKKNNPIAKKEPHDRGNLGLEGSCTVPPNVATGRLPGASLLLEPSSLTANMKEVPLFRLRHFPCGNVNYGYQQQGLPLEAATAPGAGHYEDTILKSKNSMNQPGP

| IC50 (recombinant human FAK; [5]) [nM] | IC50 [1] [nM] | IC50 [2] [nM] | IC50 ([3]; given as numeric bound) [nM] | melting point [°C] | IC50 [3, 5] [nM] | IC50 (recombinant human FAK; given as numeric bound) [nM] | SMILES | ring closure, yield of all isomers [4] [%] |
| --- | --- | --- | --- | --- | --- | --- | --- | --- |
| < 10 | 10 to 100 | 1000 to 10000 | > 2000 | 244 to 246 |  |  | COc1cc(C2CCN(C)CC2)c2cc1Nc1ncc(Cl)c(n1)Nc1cc(ccc1N(C)S(C)(=O)=O)/C=C\2 [Example 7, (14Z)-6-Chloro-10-(2-methanesulfonyl-methyl-amino)-17-(1-methyl-piperidin-4-yl)-19-methoxy-2,4,8,22-tetraazatetracyclo[14.3.1.1^3,7.1^9,13]docosa-1(20),3(22),4,6,9(21),10,12,14,16,18-decaene] |  |
| 10 to 100 | 10 to 100 | 10 to 100 |  | > 250 | 101 to 1000 |  | CN1CCN(c2ccc3cc2CCc2ccc(S(C)(=O)=O)c(c2)Nc2nc(ncc2Cl)N3)CC1 [Example 19, 6-Chloro-10-(methanesulfonyl)-17-(4-methylpiperazin-1-yl)-2,4,8,22-tetraazatetracyclo[14.3.1.1^3,7.1^9,13]docosa-1(20),3(22),4,6,9(21),10,12,16,18-nonaene] |  |
| < 10 |  | < 10 |  | > 250 | 10 to 100 |  | CC(C)S(=O)(=O)c1ccc2cc1Nc1nc(ncc1Cl)Nc1ccc(N3CCN(C)CC3)c(c1)CC2 [Example 12, 6-Chloro-10-(propane-2-sulfonyl)-17-(4-methylpiperazin-1-yl)-2,4,8,22-tetraazatetracyclo[14.3.1.1^3,7.1^9,13]docosa-1(20),3(22),4,6,9(21),10,12,16,18-nonaene] |  |
| < 10 |  |  | > 2000 | 278 to 280 | 1000 to 10000 | > 3000 | COc1cc(N2CCN(C)CC2)c2cc1Nc1ncc(Cl)c(n1)Nc1cc(ccc1N(C)S(C)(=O)=O)/C=C\2 [Example 4, (14Z)-6-Chloro-10-(2-methanesulfonyl-methyl-amino)-17-(4-methylpiperazin-1-yl)-19-methoxy-2,4,8,22-tetraazatetracyclo[14.3.1.1^3,7.1^9,13]docosa-1(20),3(22),4,6,9(21),10,12,14,16,18-decaene] | 72 |
